Source: PubChem BioAssay AID1259407 (Chemical Carcinogenesis Research Information System (CCRIS), 2018)
Calls of active or inactive are those of the source. The rule behind the calls is not given here.

Tested on: CCRIS mutagenicity, Ames/micronucleus/aberration tests
Assay: CCRIS mutagenicity studies
[1] = Test System: AMES SALMONELLA TYPHIMURIUM, Strain/Indicator: TA97, Metabolic Activation: HAMSTER, LIVER, S-9, AROCLOR 1254 (10 OR 30%), Method: PREINCUBATION
[2] = Test System: AMES SALMONELLA TYPHIMURIUM, Strain/Indicator: TA97, Metabolic Activation: NONE, Method: PREINCUBATION
[3] = Test System: AMES SALMONELLA TYPHIMURIUM, Strain/Indicator: TA98, Metabolic Activation: HAMSTER, LIVER, S-9, AROCLOR 1254 (10 OR 30%), Method: PREINCUBATION
[4] = Test System: AMES SALMONELLA TYPHIMURIUM, Strain/Indicator: TA98, Metabolic Activation: NONE, Method: PREINCUBATION
[5] = Test System: AMES SALMONELLA TYPHIMURIUM, Strain/Indicator: TA98, Metabolic Activation: RAT, LIVER, S-9, AROCLOR 1254 (10 OR 30%), Method: PREINCUBATION
[6] = Test System: AMES SALMONELLA TYPHIMURIUM, Strain/Indicator: TA100, Metabolic Activation: HAMSTER, LIVER, S-9, AROCLOR 1254 (10 OR 30%), Method: PREINCUBATION
[7] = Test System: AMES SALMONELLA TYPHIMURIUM, Strain/Indicator: TA100, Metabolic Activation: NONE, Method: PREINCUBATION
[8] = Test System: AMES SALMONELLA TYPHIMURIUM, Strain/Indicator: TA100, Metabolic Activation: RAT, LIVER, S-9, AROCLOR 1254 (10 OR 30%), Method: PREINCUBATION
[9] = Test System: AMES SALMONELLA TYPHIMURIUM, Strain/Indicator: TA1535, Metabolic Activation: HAMSTER, LIVER, S-9, AROCLOR 1254 (10 OR 30%), Method: PREINCUBATION
[10] = Test System: AMES SALMONELLA TYPHIMURIUM, Strain/Indicator: TA1535, Metabolic Activation: NONE, Method: PREINCUBATION
[11] = Test System: AMES SALMONELLA TYPHIMURIUM, Strain/Indicator: TA1535, Metabolic Activation: RAT, LIVER, S-9, AROCLOR 1254 (10 OR 30%), Method: PREINCUBATION
[12] = Test System: AMES SALMONELLA TYPHIMURIUM, Strain/Indicator: TA100, Metabolic Activation: RAT, LIVER, S-9, PHENOBARBITAL AND 5,6-BENZOFLAVONE, Method: PREINCUBATION

S=C(NC1CCCCC1)NC1CCCCC1 was tested, and the mutagenic call [1] was “inactive; negative”, the mutagenic call [2] was “inactive; negative” and the mutagenic call (Test System: AMES SALMONELLA TYPHIMURIUM, Strain/Indicator: TA97, Metabolic Activation: RAT, LIVER, S-9, AROCLOR 1254 (10%), Method: PREINCUBATION) was “inactive; negative”. For the same molecule, the mutagenic call (Test System: AMES SALMONELLA TYPHIMURIUM, Strain/Indicator: TA97, Metabolic Activation: RAT, LIVER, S-9, AROCLOR 1254 (30%), Method: PREINCUBATION) was “inactive; negative”, the mutagenic call [3] was “inactive; negative” and the mutagenic call [4] was “inactive; negative”. For the same molecule, the mutagenic call [5] was “inactive; negative”, the mutagenic call [6] was “inactive; negative” and the mutagenic call [7] was “inactive; negative”. For the same molecule, the mutagenic call [8] was “inactive; negative”, the mutagenic call [9] was “inactive; negative” and the mutagenic call [10] was “inactive; negative”. The mutagenic call [11] was “inactive; negative”, the mutagenic call (Test System: AMES SALMONELLA TYPHIMURIUM, Strain/Indicator: TA1537, Metabolic Activation: HAMSTER, LIVER, S-9, AROCLOR 1254 (10%), Method: PREINCUBATION) was “inactive; negative” and the mutagenic call (Test System: E. COLI, Strain/Indicator: WP2 UVRA, Metabolic Activation: HAMSTER, LIVER, S-9, AROCLOR 1254, Method: STANDARD PLATE) was “inactive; negative”. For the same molecule, the mutagenic call (Test System: E. COLI, Strain/Indicator: WP2 UVRA, Metabolic Activation: HAMSTER, LIVER, S-9, Method: STANDARD PLATE) was “inactive; negative”, the mutagenic call (Test System: E. COLI, Strain/Indicator: WP2 UVRA, Metabolic Activation: MOUSE, LIVER, S-9, AROCLOR 1254, Method: STANDARD PLATE) was “inactive; negative” and the mutagenic call (Test System: E. COLI, Strain/Indicator: WP2 UVRA, Metabolic Activation: MOUSE, LIVER, S-9, Method: STANDARD PLATE) was “inactive; negative”. For the same molecule, the mutagenic call (Test System: E. COLI, Strain/Indicator: WP2 UVRA, Metabolic Activation: NONE, Method: STANDARD PLATE) was “inactive; negative”, the mutagenic call (Test System: E. COLI, Strain/Indicator: WP2 UVRA, Metabolic Activation: RAT, LIVER, S-9, AROCLOR 1254, Method: STANDARD PLATE) was “inactive; negative” and the mutagenic call (Test System: E. COLI, Strain/Indicator: WP2 UVRA, Metabolic Activation: RAT, LIVER, S-9, Method: STANDARD PLATE) was “inactive; negative”. The mutagenic call (Test System: MOUSE LYMPHOMA, Strain/Indicator: L5178Y (TK+/TK-), Metabolic Activation: RAT, LIVER, S-9, AROCLOR 1254, Method: SUSPENSION/PLATE) was “inactive; negative”.

In the case of CCCCCCOC(=O)NO, the mutagenic call (Test System: E. COLI, Strain/Indicator: WP2 UVRA, Metabolic Activation: NONE, Method: FLUCTUATION TEST) is reported as “active; positive”.

For Clc1ccc2ccccc2n1, the mutagenic call [4] was “inactive; negative”, the mutagenic call (Test System: AMES SALMONELLA TYPHIMURIUM, Strain/Indicator: TA98, Metabolic Activation: RAT, LIVER, S-9, Method: PREINCUBATION) was “inactive; negative” and the mutagenic call [7] was “inactive; negative”. The mutagenic call [12] was “inactive; negative” and the mutagenic call (Test System: AMES SALMONELLA TYPHIMURIUM, Strain/Indicator: TA100, Metabolic Activation: RAT, LIVER, S-9, Method: PREINCUBATION) was “inactive; negative”.

For c1ccc2nc3c(cc2c1)-c1cccc2cccc-3c12, the mutagenic call (Test System: AMES SALMONELLA TYPHIMURIUM, Strain/Indicator: TA98, Metabolic Activation: NONE, Method: STANDARD PLATE) was “inactive; negative”, the mutagenic call (Test System: AMES SALMONELLA TYPHIMURIUM, Strain/Indicator: TA98, Metabolic Activation: RAT, LIVER, S-9, Method: STANDARD PLATE) was “inactive; negative” and the mutagenic call (Test System: AMES SALMONELLA TYPHIMURIUM, Strain/Indicator: TA100, Metabolic Activation: NONE, Method: STANDARD PLATE) was “inactive; negative”. The mutagenic call (Test System: AMES SALMONELLA TYPHIMURIUM, Strain/Indicator: TA100, Metabolic Activation: RAT, LIVER, S-9, Method: STANDARD PLATE) was “inactive; negative”.

With Fc1cnc2c(ccc3ncc(F)cc32)c1 the mutagenic call [12] was “inactive; negative”.

With O=C(O)c1ccccc1Cl the mutagenic call [1] was “inactive; negative”, the mutagenic call [2] was “inactive; negative” and the mutagenic call (Test System: AMES SALMONELLA TYPHIMURIUM, Strain/Indicator: TA97, Metabolic Activation: RAT, LIVER, S-9, AROCLOR 1254 (10 OR 30%), Method: PREINCUBATION) was “inactive; negative”. The mutagenic call [3] was “inactive; negative”, the mutagenic call [4] was “inactive; negative” and the mutagenic call (Test System: AMES SALMONELLA TYPHIMURIUM, Strain/Indicator: TA98, Metabolic Activation: RAT LIVER S-9, PCB, Method: PREINCUBATION) was “inactive; negative”. For the same molecule, the mutagenic call (Test System: AMES SALMONELLA TYPHIMURIUM, Strain/Indicator: TA98, Metabolic Activation: RAT LIVER S-9, PHENOBARBITAL AND BETA-NAPHTHOFLAVONE, Method: PREINCUBATION) was “inactive; negative”, the mutagenic call [5] was “inactive; negative” and the mutagenic call [6] was “inactive; negative”. For the same molecule, the mutagenic call [7] was “inactive; negative”, the mutagenic call (Test System: AMES SALMONELLA TYPHIMURIUM, Strain/Indicator: TA100, Metabolic Activation: RAT LIVER S-9, PCB, Method: PREINCUBATION) was “inactive; negative” and the mutagenic call (Test System: AMES SALMONELLA TYPHIMURIUM, Strain/Indicator: TA100, Metabolic Activation: RAT LIVER S-9, PHENOBARBITAL AND BETA-NAPHTHOFLAVONE, Method: PREINCUBATION) was “inactive; negative”. For the same molecule, the mutagenic call [8] was “inactive; negative”, the mutagenic call (Test System: AMES SALMONELLA TYPHIMURIUM, Strain/Indicator: TA104, Metabolic Activation: NONE, Method: PREINCUBATION) was “inactive; negative” and the mutagenic call (Test System: AMES SALMONELLA TYPHIMURIUM, Strain/Indicator: TA104, Metabolic Activation: RAT LIVER S-9, PCB, Method: PREINCUBATION) was “inactive; negative”. The mutagenic call [9] was “inactive; negative”, the mutagenic call [10] was “inactive; negative” and the mutagenic call (Test System: AMES SALMONELLA TYPHIMURIUM, Strain/Indicator: TA1535, Metabolic Activation: RAT LIVER S-9, PHENOBARBITAL AND BETA-NAPHTHOFLAVONE, Method: PREINCUBATION) was “inactive; negative”. The mutagenic call [11] was “inactive; negative”, the mutagenic call (Test System: AMES SALMONELLA TYPHIMURIUM, Strain/Indicator: TA1537, Metabolic Activation: HAMSTER, LIVER, S-9, AROCLOR 1254 (30%), Method: PREINCUBATION) was “inactive; negative” and the mutagenic call (Test System: AMES SALMONELLA TYPHIMURIUM, Strain/Indicator: TA1537, Metabolic Activation: NONE, Method: PREINCUBATION) was “inactive; negative”. For the same molecule, the mutagenic call (Test System: AMES SALMONELLA TYPHIMURIUM, Strain/Indicator: TA1537, Metabolic Activation: RAT LIVER S-9, PHENOBARBITAL AND BETA-NAPHTHOFLAVONE, Method: PREINCUBATION) was “inactive; negative”, the mutagenic call (Test System: AMES SALMONELLA TYPHIMURIUM, Strain/Indicator: TA1537, Metabolic Activation: RAT, LIVER, S-9, AROCLOR 1254 (30%), Method: PREINCUBATION) was “inactive; negative” and the mutagenic call (Test System: AMES SALMONELLA TYPHIMURIUM, Strain/Indicator: TA1538, Metabolic Activation: NONE, Method: PREINCUBATION) was “inactive; negative”. For the same molecule, the mutagenic call (Test System: AMES SALMONELLA TYPHIMURIUM, Strain/Indicator: TA1538, Metabolic Activation: RAT LIVER S-9, PHENOBARBITAL AND BETA-NAPHTHOFLAVONE, Method: PREINCUBATION) was “inactive; negative”, the mutagenic call (Test System: E.COLI, Strain/Indicator: WP2 UVRA, Metabolic Activation: NONE, Method: PREINCUBATION) was “inactive; negative” and the mutagenic call (Test System: E.COLI, Strain/Indicator: WP2UVRA, Metabolic Activation: NONE, Method: PREINCUBATION) was “inactive; negative”. For the same molecule, the mutagenic call (Test System: E.COLI, Strain/Indicator: WP2 UVRA, Metabolic Activation: RAT LIVER S-9, PCB, Method: PREINCUBATION) was “inactive; negative” and the mutagenic call (Test System: E.COLI, Strain/Indicator: WP2UVRA, Metabolic Activation: RAT LIVER S-9, PHENOBARBITAL AND BETA-NAPHTHOFLAVONE, Method: PREINCUBATION) was “inactive; negative”.

C[N+]1=CC=C(c2ccccc2)CC1 was tested, and the mutagenic call [7] was “active; positive” and the mutagenic call (Test System: AMES SALMONELLA TYPHIMURIUM, Strain/Indicator: TA102, Metabolic Activation: NONE, Method: PREINCUBATION) was “inactive; negative”.
